Two compounds from patent publication US7468388B2, “Dimeric compounds and their use as anti-viral agents” (priority 2001, dated 2008) can be followed below.

In one assay the test system is A/W SN/33 BVLV09 (H1N1). As to the kind of experiment: Plaque reduction assay (PRA) in MDCK cells. To be noted: reduces plaque numbers by 50%. It is filed as cell-based, influenza A (H1N1). (In general: In a plaque reduction assay, fewer plaques than in the control indicate reduced infectivity or spread.)
Assay [1] has as its system A/Panama/2007/99 BVLV008 (H3N2). As to the kind of experiment: Plaque reduction assay (PRA) in MDCK cells. In kind it is cell-based. To be noted: reduces plaque numbers by 50%.
In assay [2] the test system is A/New Caledonia/20/99 BVLV008 (H1N1). As to the kind of experiment: Plaque reduction assay (PRA) in MDCK cells. It is filed as cell-based. The following applies: reduces plaque numbers by 50%.
The test system of the next assay is Influenza A/Sydney/5/97. As to the kind of experiment: Cytopathic effect (CPE) assay in MDCK cells, MTT readout. To be noted: concentration that inhibited CPE by 50%, up to 72 hours. It is filed as cell-based. In general terms: Protection from cytopathic effect is a common read-out in antiviral testing.
Another assay concerns B/Harbin/7/95 BVLV008. The assay can be described thus: Plaque reduction assay (PRA) in MDCK cells. It is filed as cell-based. To be noted: Influenza B virus, read-out: EC50 PRA B/Harb*.
The subject of assay [3] is B/Yamaneshl/166/98 BVLV007. The assay can be described thus: Plaque reduction assay (PRA) in MDCK cells. In kind it is cell-based. To be noted: Influenza B virus, read-out: EC50 PRA B/Yam*, reduces plaque numbers by 50%, MDCK cells.

In brackets after ≈: the same amount, converted by molar mass.

In the case of `CC(=O)N[C@@H]1C(N=C(N)N)C=C(C(=O)O)O[C@H]1[C@H](O)[C@H](O)CO` (single isomer, unassigned) [Compound A, 4-guanidino-2-deoxy-2,3-dehydro-N-acetylneuraminic acid], the “EC50 PRA A/W SN*” value with A/W SN/33 BVLV09 (H1N1) is more than 0.1 µg/mL. Besides, the “EC50 PRA A/Pan*” value in assay [1] amounted to 0.003 µg/mL (≈ 0.00903 µM). In assay [2], the “EC50 PRA A/New*” value turned out to be 0.00023 µg/mL (≈ 0.000692 µM). For the same compound, the “ID50 A/Sydney/5/97+” value in the assay with Influenza A/Sydney/5/97 is 0.023 ± 0.024 µg/mL (≈ 0.0692 µM). Moreover, in the assay on B/Harbin/7/95 BVLV008, the EC50 was determined as 0.00019 µg/mL (≈ 0.000572 µM).

Turning to `NC12CC3CC(CC(C3)C1)C2` [Amantadine], in assay [3], the EC50 amounted to 2.08 µg/mL (≈ 13.8 µM).
